Laboratory results from patent publication US9844575B2, “Pharmaceutical composition and functional food comprising natural extracts for preventing or treating diabetic complications or angiodema” (KOREA INSTITUTE OF ORIENTAL MEDICINE, priority 2013, dated 2017).
Counter-ions that a name gives are not always drawn.

Legend:
[1] = tested on: vascular endothelial growth factor (VEGF); assay: Immunohistochemical staining: formation of VEGF in retina of db/db mice; type: in vivo; settings: oral once daily 12 weeks; COPH 25 and 50 mg/kg; MET 350 mg/kg; COPH 50 + MET 350 mg/kg
Excerpt: VEGF induces neovascularization and increases permeability of blood vessels. Additionally, VEGF also induces the formation of substrate-degradative proteins.

[2] = tested on: advanced glycation endproducts (AGE); assay: Inhibitory effect against formation of advanced glycation endproducts (BSA + fructose/glucose, 7 days, fluorescence); type: biochemical
Description: Experiments were performed to examine the inhibitory effects of each of the compositions prepared in Example 1 and Example 2 against the formation of advanced glycation endproducts.
Bovine serum albumin (BSA), a protein source, was prepared by mixing into a phosphate buffer solution. As a sugar source, a mixed solution between 0.2 M fructose and 0.2 M glucose was used. Each of the compositions prepared in Example 1 and Example 2, and aminoguanidine (positive control) were respectively added into a mixed solution between BSA and a sugar, and cultured for 7 days. After culturing, the content of the resulting advanced glycation endproducts was analyzed. The amount of the advanced glycation endproducts was calculated based on the Equation 1 below using a Microplate reader (Excitation; 350 nm, Emission; 450 nm) (Table 1). Inhibitory effect of AGE (%)={100−(fluorescence intensity of a sample)−(fluorescence intensity of a blank sample)/(fluorescence intensity of a control)−(fluorescence intensity of a blank control)}×100 [Equation 1]

Compound | expression of VEGF within retinal tissue (FIG. 9) [1] | IC50 ([2]; AGE formation, BSA + 0.2 M fructose/0.2 M glucose, 7 days) [µg/mL] | Inhibitory effect (%) ([2]; Conc. 55.5 μg/mL) | Inhibitory effect (%) ([2]; Conc. 74.8 μg/mL) | Inhibitory effect (%) ([2]; Conc. 92.5 μg/mL)
CN(C)C(=N)N=C(N)N [MET, metformin] | significantly inhibited the expression of VEGF | – | – | – | –
N=C(N)NN [Aminoguanidine HCl] | – | 76.47 ± 4.81 | 43.92 ± 0.37 | 50.86 ± 2.17 | 54.91 ± 0.75
